Assay results reported in US4039384A, “Creatinine amidohydrolase and creatine amidinohydrolase and process for producing them” (Noda Institute for Scientific Research, priority 1975, dated 1977).
Like-named read-outs stand apart in the source and are kept apart here.

Experiments:
[1] = biological target: T1, creatine amidinohydrolase of this invention (from Flavobacterium U-188, Micrococcus luteus ATCC 398 or Corynebacterium U-41) (Flavobacterium sp. U-188, UniProt P19213); assay: Creatine amidinohydrolase activity, enzyme of this invention; format: biochemical
T1 sequence (P19213 1-403): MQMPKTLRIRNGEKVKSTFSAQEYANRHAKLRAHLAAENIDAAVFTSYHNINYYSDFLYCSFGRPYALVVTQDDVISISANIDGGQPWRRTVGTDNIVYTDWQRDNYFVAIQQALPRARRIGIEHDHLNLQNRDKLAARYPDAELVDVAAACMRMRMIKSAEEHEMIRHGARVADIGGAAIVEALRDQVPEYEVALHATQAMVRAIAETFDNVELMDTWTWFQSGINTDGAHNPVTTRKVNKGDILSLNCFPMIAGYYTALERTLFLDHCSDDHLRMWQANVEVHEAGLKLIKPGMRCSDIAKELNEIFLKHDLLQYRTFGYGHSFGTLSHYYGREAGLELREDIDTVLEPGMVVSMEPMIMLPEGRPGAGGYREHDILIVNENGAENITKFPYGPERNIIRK
Experimental: This enzyme has an ability to hydrolyze creatine into urea and sarcosine. […] 2.
To 0.8 ml of 0.1 M creatine solution are added 0.1 of 0.3 M phosphate buffer (pH 7.7) and 0.1 ml of a solution of this enzyme having an appropriate concentration, and the resulting mixture is reacted at 37° C. for 10 minutes. Then, 2 ml of 2% (W/V) p-dimethylaminobenzaldehyde solution (prepared by dissolving 2 g of p-dimethylaminobenzaldehyde into 100 ml of 99.5% ethanol, adding 15 ml of concentrated hydrochloric acid and diluting the mixture with distilled water to a 2 times greater quantity) is added, and the resulting mixture is allowed to stand at 25° C. for 30 minutes. Then, its absorbance (O. D. value) at 435 mμ is measured with photoelectric colorimeter. […] The quantity of enzyme necessary for producing 1 micromole of urea per one minute at 37° C. is taken as one unit.

[2] = biological target: T2, creatine amidinohydrolase of prior art (i) (Journal of General Microbiology, Vol. 14, pp. 351 to 365 (1956); Genus Pseudomonas) (Pseudomonas putida, UniProt P38488); conditions: cited from earlier work
T2 sequence (P38488 1-403): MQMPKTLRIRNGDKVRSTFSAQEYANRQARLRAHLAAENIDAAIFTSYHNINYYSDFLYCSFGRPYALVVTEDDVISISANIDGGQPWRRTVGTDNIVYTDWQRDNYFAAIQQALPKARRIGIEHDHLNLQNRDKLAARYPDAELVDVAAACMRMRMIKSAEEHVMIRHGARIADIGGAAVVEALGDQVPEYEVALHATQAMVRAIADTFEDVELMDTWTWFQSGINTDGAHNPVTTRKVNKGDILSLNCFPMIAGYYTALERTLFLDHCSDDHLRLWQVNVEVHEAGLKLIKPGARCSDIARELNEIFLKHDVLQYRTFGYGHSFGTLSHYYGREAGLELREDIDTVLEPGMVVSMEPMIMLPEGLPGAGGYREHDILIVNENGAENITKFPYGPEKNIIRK

[3] = inhibitor final concentration 2 × 10^-2 M
[4] = inhibitor final concentration 5 × 10^-2 M, pH 9.1

## [N-]=[N+]=[N-] [Azide]
[1]; [3]
  Percentage inhibition of creatine removal: 0%
[2]; [3]
  Percentage inhibition of creatine removal: 18%

## O=C(O)CI [Iodoacetate]
[1]; read-out: Percentage inhibition of creatine removal
  inhibition at 10000 µM: 0%
[2]; inhibitor final concentration 10^-2 M
  Percentage inhibition of creatine removal: 20%

## Borate
[1]; [4]
  Percentage inhibition of creatine removal: 40%
[2]; [4]
  Percentage inhibition of creatine removal: 80%
